Laboratory results taken from ChEMBL document CHEMBL3272183, “Analgesics. 1. Synthesis and analgesic properties of N-sec-alkyl- and N-tert-alkylnormorphines” (J Med Chem, 1978).
Activity calls are given as the source filed them. The calls are words filed in the database; no cut-off is given here.

Assays:
Mus musculus [1] = organism: Mus musculus; assay: Analgesic activity in Swiss-Webster mouse measured for 20 mins by tail flick test; type: functional
Mus musculus [2] = organism: Mus musculus; assay: Analgesic activity in Swiss-Webster mouse assessed as reduction of […]-induced writhing; type: functional
Opioid receptor [3] = target: T1, Opioid receptor (Rattus norvegicus, UniProt P33533+P34975+P33535); assay: Displacement of [3H]-naloxone from rat opioid receptor after 30 mins by liquid scintillation counting analysis in absence of NaCl; type: protein assay
Opioid receptor [4] = target: T1, Opioid receptor; assay: Displacement of [3H]-naloxone from rat opioid receptor after 30 mins by liquid scintillation counting analysis in presence of NaCl; type: protein assay
Mus musculus [5] = assay: In vivo inhibition of morphine-induced straub-tail response in sc dosed Swiss-Webster mouse measured for 30 mins; type: functional; conditions: for ED50: 0.5 h

| SMILES | ED50 (Mus musculus [1]) | ED50 (Mus musculus [2]) | IC50 (Opioid receptor [3]) | IC50 (Opioid receptor [4]) | ED50 (Mus musculus [5]) | inhibition (Mus musculus [5]) |
| --- | --- | --- | --- | --- | --- | --- |
| Oc1ccc2c3c1O[C@H]1[C@@H](O)C=C[C@H]4[C@@H](C2)N(C2CCCCCC2)CC[C@@]341 | > 136 µmol/kg | 9.9 µmol/kg | 0.019 µM | 0.15 µM | 60.8 µmol/kg |  |
| CC(C)(Cc1ccccc1)N1CC[C@]23c4c5ccc(O)c4O[C@H]2[C@@H](O)C=C[C@H]3[C@H]1C5 | > 310 µmol/kg | > 176 µmol/kg | 1 µM | 1 µM |  |  |
| CC[C@H](C)N1CC[C@]23c4c5ccc(O)c4O[C@H]2[C@@H](O)C=C[C@H]3[C@H]1C5 |  |  | 0.028 µM | 0.062 µM |  |  |
| Oc1ccc2c3c1O[C@H]1[C@@H](O)C=C[C@H]4[C@@H](C2)N(C2CCCC2)CC[C@@]341 | 124 µmol/kg | 15.5 µmol/kg | 0.034 µM | 0.045 µM | 15.5 µmol/kg |  |
| CCCC(C)N1CC[C@]23c4c5ccc(O)c4O[C@H]2[C@@H](O)C=C[C@H]3[C@H]1C5 (some centres not stated) | > 439 µmol/kg | 9 µmol/kg | 0.037 µM | 0.34 µM | 80.8 µmol/kg |  |
| C=C[C@@H](C)N1CC[C@]23c4c5ccc(O)c4O[C@H]2[C@@H](O)C=C[C@H]3[C@H]1C5 |  |  | 0.027 µM | 0.08 µM |  |  |
| CCCN1CC[C@]23c4c5ccc(O)c4O[C@H]2[C@@H](O)C=C[C@H]3[C@H]1C5 | 51 µmol/kg | 29 µmol/kg | 0.014 µM | 0.014 µM | 0.6 µmol/kg |  |
| Oc1ccc2c3c1O[C@H]1[C@@H](O)C=C[C@H]4[C@@H](C2)N(CCc2ccccc2)CC[C@@]341 | 1.7 µmol/kg | 0.27 µmol/kg | 0.0042 µM | 0.133 µM |  | inactive |
| C=C[C@H](C)N1CC[C@]23c4c5ccc(O)c4O[C@H]2[C@@H](O)C=C[C@H]3[C@H]1C5 | 105 µmol/kg |  | 0.016 µM | 0.025 µM |  |  |
| CN1CC[C@]23c4c5ccc(O)c4O[C@H]2[C@@H](O)C=C[C@H]3[C@H]1C5 [MORPHINE] | 10.5 µmol/kg | 1.5 µmol/kg |  |  |  | inactive |
| Oc1ccc2c3c1O[C@H]1[C@@H](O)C=C[C@H]4[C@@H](C2)N(C2C=CCCC2)CC[C@@]341 (some centres not stated) | 79.7 µmol/kg |  | 0.051 µM | 0.13 µM | 23.8 µmol/kg |  |
| CC(Cc1ccccc1)N1CC[C@]23c4c5ccc(O)c4O[C@H]2[C@@H](O)C=C[C@H]3[C@H]1C5 (some centres not stated) | 4.3 µmol/kg | 0.13 µmol/kg | 0.0034 µM | 0.125 µM |  | inactive |
| CCC(C)(C)N1CC[C@]23c4c5ccc(O)c4O[C@H]2[C@@H](O)C=C[C@H]3[C@H]1C5 | > 580 µmol/kg | > 290 µmol/kg | 1 µM | 1 µM |  |  |
| Oc1ccc2c3c1O[C@H]1[C@@H](O)C=C[C@H]4[C@@H](C2)N(C2CCCCC2)CC[C@@]341 | > 212 µmol/kg | 15.7 µmol/kg | 0.038 µM | 0.092 µM |  |  |
| CCC(CC)N1CC[C@]23c4c5ccc(O)c4O[C@H]2[C@@H](O)C=C[C@H]3[C@H]1C5 |  |  | 0.078 µM | 0.175 µM |  |  |
| CC[C@@H](C)N1CC[C@]23c4c5ccc(O)c4O[C@H]2[C@@H](O)C=C[C@H]3[C@H]1C5 |  |  | 0.06 µM | 0.11 µM |  |  |
| C=CC(C)(C)N1CC[C@]23c4c5ccc(O)c4O[C@H]2[C@@H](O)C=C[C@H]3[C@H]1C5 | > 295 µmol/kg | 74 µmol/kg | > 1 µM | > 1 µM |  |  |
| C=CCN1CC[C@]23c4c5ccc(O)c4O[C@H]2[C@@H](O)C=C[C@H]3[C@H]1C5 [NALORPHINE] |  | 3.2 µmol/kg | 0.002 µM | 0.006 µM |  |  |
